This is an account of results in ChEMBL document CHEMBL4627367, “Structure-based design and synthesis of novel furan-diketopiperazine-type derivatives as potent microtubule inhibitors for treating cancer” (Bioorg Med Chem, 2020).

The test system of experiment [1] is NCI-H460. As to the kind of experiment: Cytotoxicity against human NCI-H460 cells assessed as reduction in cell viability after 72 hrs by MTT assay. The format is functional, cell-based. The note with it: NCI-H460, 72 h. (In general: Tetrazolium assays rely on reduction of a dye to a coloured formazan, in cell work by metabolically active cells.)
The subject of experiment [2] is HT-29. As to the kind of experiment: Cytotoxicity against human HT-29 cells assessed as reduction in cell viability after 72 hrs by MTT assay. In kind it is functional, cell-based. The note with it: HT-29, 72 h.
Experiment [3] deals with BXPC-3. The experiment can be described thus: Cytotoxicity against human BxPC3 cells assessed as reduction in cell viability incubated for 72 hrs by MTT assay. In kind it is functional, cell-based. The note with it: BXPC-3, 72 h.
Experiment [4] deals with T1, Tubulin (Homo sapiens) (UniProt P68371+Q9H4B7+P0DPH7+P68366+Q13509+Q71U36+P04350+Q3ZCM7+P07437+P68363+Q9BQE3+Q6PEY2+Q13885+Q9BVA1+Q9BUF5). The experiment can be described thus: Inhibition of tubulin in human NCI-H460 cells assessed as inhibition of microtubule polymerization at 2 nM after 24 hrs by immunofluorescence assay. In kind it is cell-based.
For experiment [5], the target named is T1, Tubulin (Homo sapiens). The experiment can be described thus: Inhibition of tubulin in human NCI-H460 cells assessed as inhibition of microtubule polymerization at 10 nM after 24 hrs by immunofluorescence assay. In kind it is cell-based.

Structures are written as SMILES. Active and inactive are the calls of the source. The calls are words filed in the database; no cut-off is given here.

Regarding `O=c1[nH]/c(=C\c2cc3ccccc3o2)c(=O)[nH]/c1=C\c1cccc(Oc2ccc(F)cc2)c1`, the IC50 – broadly, the midpoint of a concentration-inhibition curve – in experiment [1] stood at 347 nM.

As to `O=c1[nH]/c(=C\c2cccs2)c(=O)[nH]/c1=C\c1cccc(Oc2ccc(F)cc2)c1`, in experiment [1], the IC50 is above 1000 nM.

For `CC(C)(C)c1[nH]cnc1/C=c1\[nH]c(=O)/c(=C/c2cccc(C(=O)c3ccc(F)cc3)c2)[nH]c1=O`, the concentration for half-maximal inhibition (IC50) in experiment [2] and in experiment [3] was 0.6 nM each time. Moreover, in experiment [4], the inhibition entry is “Active”.

On to `Cc1ccc(/C=c2\[nH]c(=O)/c(=C/c3cccc(Oc4ccc(F)cc4)c3)[nH]c2=O)o1`, for which the concentration for half-maximal inhibition (IC50) in experiment [1] stood at 30 nM.

As to `O=c1[nH]/c(=C\c2ccco2)c(=O)[nH]/c1=C\c1cccc(Oc2ccc(F)cc2)c1`, in experiment [1], the IC50 came to 154 nM.

Take `Cc1[nH]cnc1/C=c1\[nH]c(=O)/c(=C/c2cccc(Oc3ccc(F)cc3)c2)[nH]c1=O`: the IC50 in experiment [1] is 47.6 nM.

For the compound `CC(C)(C)c1[nH]cnc1/C=c1\[nH]c(=O)/c(=C/c2cccc(Oc3ccc(F)cc3)c2)[nH]c1=O`, the IC50 in experiment [2] worked out at 2.1 nM; in experiment [3] it was 3.2 nM. In experiment [5], the inhibition result was “Active”.

For `O=c1[nH]/c(=C\c2c[nH]cn2)c(=O)[nH]/c1=C\c1cccc(Oc2ccc(F)cc2)c1`, the 50% inhibitory concentration (IC50) in experiment [1] was determined as 478 nM.

`O=c1[nH]/c(=C\c2ccc(Cl)o2)c(=O)[nH]/c1=C\c1cccc(Oc2ccc(F)cc2)c1`: in experiment [1], the concentration for half-maximal inhibition (IC50) came to 180 nM.

On to `CC(C)c1[nH]cnc1/C=c1\[nH]c(=O)/c(=C/c2cccc(C(=O)c3ccc(F)cc3)c2)[nH]c1=O`, for which the figures for the 50% inhibitory concentration (IC50) in experiment [2], in experiment [3] and in experiment [1] were 0.8 nM, 0.6 nM and 3.2 nM, respectively. Besides, the inhibition entry in experiment [5] was “Active”.

Turning to `O=c1[nH]/c(=C\c2ccc([N+](=O)[O-])o2)c(=O)[nH]/c1=C\c1cccc(Oc2ccc(F)cc2)c1`, the concentration for half-maximal inhibition (IC50) in experiment [1] was above 1000 nM.

Turning to `O=C(c1ccc(F)cc1)c1cccc(/C=c2\[nH]c(=O)/c(=C/c3c[nH]cn3)[nH]c2=O)c1`, the results for the 50% inhibitory concentration (IC50) in experiment [2], in experiment [3] and in experiment [1] were 5.1 nM, 4.3 nM and 278 nM, respectively.

For `Cc1[nH]cnc1/C=c1\[nH]c(=O)/c(=C/c2cccc(C(=O)c3ccc(F)cc3)c2)[nH]c1=O`, the half-inhibitory concentration (IC50) in experiment [1] worked out at 15.9 nM.

`COCc1ccc(/C=c2\[nH]c(=O)/c(=C/c3cccc(Oc4ccc(F)cc4)c3)[nH]c2=O)o1`: the IC50 is 7 nM in experiment [2], 6.6 nM in experiment [3] and 14 nM in experiment [1]. Moreover, the inhibition result in experiment [5] was “Active”.

As to `O=c1[nH]/c(=C\c2ccccn2)c(=O)[nH]/c1=C\c1cccc(Oc2ccc(F)cc2)c1`, in experiment [1], the half-inhibitory concentration (IC50) was 49.1 nM.

For `O=c1[nH]/c(=C\C2CCCCC2)c(=O)[nH]/c1=C\c1cccc(Oc2ccc(F)cc2)c1`, the half-inhibitory concentration (IC50) in experiment [1] was above 1000 nM.

As to `O=c1[nH]/c(=C\c2cccc(Oc3ccc(F)cc3)c2)c(=O)[nH]/c1=C\c1cccnc1`, the 50% inhibitory concentration (IC50) in experiment [1] is above 1000 nM.

Consider `COCc1ccc(/C=c2\[nH]c(=O)/c(=C/c3cccc(C(=O)c4ccc(F)cc4)c3)[nH]c2=O)o1`, for which the half-maximal inhibitory concentration (IC50) is 2.2 nM in experiment [2], 2 nM in experiment [3] and 2.9 nM in experiment [1]. Further, the inhibition entry in experiment [5] was “Active”.

As for `Cc1ccc(/C=c2\[nH]c(=O)/c(=C/c3cccc(C(=O)c4ccc(F)cc4)c3)[nH]c2=O)o1`, the IC50 in experiment [2] was determined as 3.3 nM; in experiment [3], 3.7 nM; in experiment [1], 5.3 nM.

As for `CC(C)c1[nH]cnc1/C=c1\[nH]c(=O)/c(=C/c2cccc(Oc3ccc(F)cc3)c2)[nH]c1=O`, the IC50 in experiment [2] stood at 3.7 nM; in experiment [3], 3.4 nM; in experiment [1], 8.8 nM. Moreover, in experiment [5], the inhibition entry was “Active”.

Consider `O=c1[nH]/c(=C\c2ccc(Br)o2)c(=O)[nH]/c1=C\c1cccc(Oc2ccc(F)cc2)c1`, for which the half-inhibitory concentration (IC50) in experiment [1] is 361 nM.

Turning to `O=c1[nH]/c(=C\c2nc[nH]c2C2CC2)c(=O)[nH]/c1=C\c1cccc(Oc2ccc(F)cc2)c1`, the values for the half-maximal inhibitory concentration (IC50) in experiment [2], in experiment [3] and in experiment [1] were 7.4 nM, 9.4 nM and 15.2 nM, respectively.

With `O=c1[nH]/c(=C\c2cccc(Oc3ccc(F)cc3)c2)c(=O)[nH]/c1=C\c1ccccc1`, in experiment [1], the IC50 was 389 nM.

For `O=C(c1ccc(F)cc1)c1cccc(/C=c2\[nH]c(=O)/c(=C/c3nc[nH]c3C3CC3)[nH]c2=O)c1`, the figures for the IC50 in experiment [2], in experiment [3] and in experiment [1] were 1.4 nM, 1.4 nM and 2.8 nM, respectively.

`O=c1[nH]/c(=C\c2nc3ccccc3[nH]2)c(=O)[nH]/c1=C\c1cccc(Oc2ccc(F)cc2)c1`: the half-inhibitory concentration (IC50) in experiment [1] was above 1000 nM.

`CC(C)(C)c1[nH]cnc1/C=c1\[nH]c(=O)/c(=C/c2ccccc2)[nH]c1=O` [PLINABULIN]: the figures for the IC50 in experiment [2] and in experiment [3] were 6.6 nM and 5.8 nM, respectively. For the same compound, the inhibition result in experiment [5] was “Active”.

For the compound `O=c1[nH]/c(=C\c2ncc[nH]2)c(=O)[nH]/c1=C\c1cccc(Oc2ccc(F)cc2)c1`, the IC50 in experiment [1] was above 1000 nM.

As for `O=c1[nH]/c(=C\c2ccc(CO)o2)c(=O)[nH]/c1=C\c1cccc(Oc2ccc(F)cc2)c1`, the 50% inhibitory concentration (IC50) in experiment [1] is 41.5 nM.
